Reference: patent US20230287061A1, “NEW ANTIMICROBIAL PEPTIDES” (priority 2020, published 2023)
Ends that are not written are not given here.

Test system: B. cereus

Q: For ALLKVLFSWFRKHNSRRKNLPAKN [Seq ID no2], which MIC is on record?
A: The MIC was 256 µg/mL.
